# Reference: patent US8735398B2 (Bristol-Myers Squibb Company, priority 2009, dated 2014)
# Tested on: HCV 1b genotype
# Test: HCV replicon assay (HCV-neo replicon cells, wild-type)
# Type: cell-based, Hepatitis C virus
# Conditions: HCV 1b genotype replicon; class symbol; read-out: EC50 Range against HCV 1b
# Summary of the method: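 HCV-neo replicon cells (wild-type) and replicon cells carrying NS5A resistance substitutions were treated with compounds; assay per O'Boyle et al. 2005, with luciferase-reporter read-out variants also used.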
row,SMILES,EC50
1,"CC(C)(C)OC(=O)N1CCCC1C(=O)N1CCCC1C(=O)Nc1ccc(-c2cnc(-c3ccc(NC(=O)C4CCCN4C(=O)C4CCCN4C(=O)OC(C)(C)C)cc3)o2)cc1 [Example D-27, di-tert-butyl (2S,2′S)-2,2′-(1,3-oxazole-2,5-diylbis(4,1-phenylenecarbamoyl(2S)-2,1-pyrrolidinediylcarbonyl))di(1-pyrrolidinecarboxylate)]",1000 to 10000 nM
2,"O=C(Nc1ccc(-c2cnc(-c3ccc(NC(=O)[C@@H]4CCCN4C(=O)[C@@H]4C[C@@H]5C[C@@H]5N4C(=O)c4ccc(Cl)cc4Cl)cc3)o2)cc1)[C@@H]1CCCN1C(=O)[C@@H]1C[C@@H]2C[C@@H]2N1C(=O)c1ccc(Cl)cc1Cl [Example D-26, (S,S,S,2S,2′S)-N,N′-(4,4′-(oxazole-2,5-diyl)bis(4,1-phenylene))bis(1-((1S,3S,5S)-2-(2,4-dichlorobenzoyl)-2-azabicyclo[3.1.0]hexane-3-carbonyl)pyrrolidine-2-carboxamide)]",1000 to 10000 nM

# Same assay, conditions: HCV 1b genotype replicon; class symbols; read-out: EC50 Range against HCV 1b
row,SMILES,EC50
1,"O=C(Nc1ccc(-c2cnc(-c3ccc(NC(=O)[C@@H]4CCCN4C(=O)CN4CCCCC4)cc3)o2)cc1)[C@@H]1CCCN1C(=O)CN1CCCCC1 [XY-41, (2S,2′S)-N,N′-(1,3-oxazole-2,5-diyldi-4,1-phenylene)bis(1-(1-piperidinylacetyl)-2-pyrrolidinecarboxamide)]",1000 to 10000 nM

# Same assay, conditions: HCV 1b genotype replicon; read-out: EC50 1b
row,SMILES,EC50
1,"O=C(Nc1ccc(-c2cnc(-c3ccc(NC(=O)[C@@H]4CCCN4C(=O)[C@@H]4C[C@@H]5C[C@@H]5N4C(=O)c4ccc(Cl)cc4Cl)cc3)o2)cc1)[C@@H]1CCCN1C(=O)[C@@H]1C[C@@H]2C[C@@H]2N1C(=O)c1ccc(Cl)cc1Cl [Example D-26, (S,S,S,2S,2′S)-N,N′-(4,4′-(oxazole-2,5-diyl)bis(4,1-phenylene))bis(1-((1S,3S,5S)-2-(2,4-dichlorobenzoyl)-2-azabicyclo[3.1.0]hexane-3-carbonyl)pyrrolidine-2-carboxamide)]",3330 nM

# Same assay, conditions: Hepatitis C virus, HCV 1b genotype replicon; class symbol; read-out: EC50 Range against HCV 1b
row,SMILES,EC50
1,"O=C(Nc1ccc(-c2cc(-c3ccc(NC(=O)[C@@H]4CCCN4C(=O)OCc4ccccc4)cc3)[nH]n2)cc1)[C@@H]1CCCN1C(=O)OCc1ccccc1 [OL-26, (2S,2′S)-2,2′-[1H-pyrazole-3,5-diylbis(4,1-phenyleneiminocarbonyl)]bis-1-pyrrolidinecarboxylic acid, bis(phenylmethyl) ester]",4.57 to 99 nM
2,"O=C(Nc1ccc(-c2nc[nH]c2-c2ccc(NC(=O)[C@@H]3CCCN3C(=O)c3cc4ccccc4o3)cc2)cc1)[C@@H]1CCCN1C(=O)c1cc2ccccc2o1 [JG-51, (2S,2′S)-N,N′-(1H-imidazole-4,5-diyldi-4,1-phenylene)bis(1-(1-benzofuran-2-ylcarbonyl)-2-pyrrolidinecarboxamide)]",100 to 999 nM
3,"O=C(Nc1ccc(-c2nnc(-c3ccc(NC(=O)[C@@H]4CCCN4C(=O)c4ccco4)cc3)o2)cc1)[C@@H]1CCCN1C(=O)c1ccco1 [RK-13, (2S,2′S)-N,N′-(1,3,4-oxadiazole-2,5-diyldi-4,1-phenylene)bis(1-(2-furoyl)-2-pyrrolidinecarboxamide)]",100 to 999 nM
4,"C[C@H](NC(=O)[C@H](O)c1ccccc1)C(=O)Nc1ccc(-c2cnc(-c3ccc(NC(=O)[C@H](C)NC(=O)[C@H](O)c4ccccc4)cc3)o2)cc1 [OL-55, (2S,2′S)-N,N′-(1,3-oxazole-2,5-diyldi-4,1-phenylene)bis(2-(((2R)-2-hydroxy-2-phenylacetyl)amino)propanamide)]",< 4.57 nM
5,"C[C@H](NC(=O)[C@H](O)c1ccccc1)C(=O)Nc1ccc(-c2cc(-c3ccc(NC(=O)[C@@H](C)NC(=O)[C@H](O)c4ccccc4)cc3)[nH]n2)cc1 [OL-44, (S)-2-((R)-2-hydroxy-2-phenylacetamido)-N-(4-(5-(4-((R)-2-((R)-2-hydroxy-2-phenylacetamido)propanamido)phenyl)-1H-pyrazol-3-yl)phenyl)propanamide]",< 4.57 nM
6,"C[C@](O)(C(=O)N1CCC[C@H]1C(=O)Nc1ccc(-c2nc[nH]c2-c2ccc(NC(=O)[C@@H]3CCCN3C(=O)[C@](C)(O)c3ccccc3)cc2)cc1)c1ccccc1 [JG-47, (2S,2′S)-N,N′-(1H-imidazole-4,5-diyldi-4,1-phenylene)bis(1-((2R)-2-hydroxy-2-phenylpropanoyl)-2-pyrrolidinecarboxamide)]",4.57 to 99 nM
7,"O=C(Nc1ccc(-c2nc[nH]c2-c2ccc(NC(=O)[C@@H]3CCCN3C(=O)[C@@H](O)c3ccccc3)cc2)cc1)[C@@H]1CCCN1C(=O)[C@@H](O)c1ccccc1 [JG-44, (2S,2′S)-N,N′-(1H-imidazole-4,5-diyldi-4,1-phenylene)bis(1-((2S)-2-hydroxy-2-phenylacetyl)-2-pyrrolidinecarboxamide)]",100 to 999 nM
8,"O=C(Nc1cccc(-c2ccc(-c3cccc(NC(=O)[C@@H]4CCCN4C(=O)Cc4ccccc4)c3)s2)c1)[C@@H]1CCCN1C(=O)Cc1ccccc1 [OL-25, (2S,2′S)-N,N′-(2,5-thienediyldi-3,1-phenylene)bis[1-(phenylacetyl)-2-pyrrolidinecarboxamide]]",4.57 to 99 nM
9,"CN(C)[C@@H](C(=O)N1CCC[C@H]1C(=O)Nc1ccc(-c2ccc(-c3ccc(NC(=O)[C@@H]4CCCN4C(=O)[C@@H](c4ccccc4)N(C)C)cc3)o2)cc1)c1ccccc1 [JG-63, (2S,2′S)-N,N′-(2,5-furandiyldi-4,1-phenylene)bis(1-((2R)-2-(dimethylamino)-2-phenylacetyl)-2-pyrrolidinecarboxamide)]",< 4.57 nM
10,"COCC[C@H](NC(=O)Cc1ccccc1)C(=O)Nc1ccc(-c2cnc(-c3ccc(NC(=O)[C@H](CCOC)NC(=O)Cc4ccccc4)cc3)o2)cc1 [JG-15, (2S,2′S)-N,N′-(1,3-oxazole-2,5-diyldi-4,1-phenylene)bis(4-methoxy-2-((phenylacetyl)amino)butanamide)]",100 to 999 nM
11,"O=C(Nc1ccc(-c2nncn2-c2ccc(NC(=O)[C@@H]3CCCN3C(=O)Cc3ccccc3)cc2)cc1)[C@@H]1CCCN1C(=O)Cc1ccccc1 [OL-15, (2S,2′S)-N,N′-(4H-1,2,4-triazole-3,4-diyldi-4,1-phenylene)bis[1-(phenylacetyl)-2-pyrrolidinecarboxamide]]",1000 to 10000 nM
12,"C[C@@](O)(C(=O)N1CCC[C@H]1C(=O)Nc1ccc(-c2cc(-c3ccc(NC(=O)[C@@H]4CCCN4C(=O)[C@@](C)(O)c4ccccc4)cc3)[nH]n2)cc1)c1ccccc1 [JG-39, (2S,2′S)-N,N′-(1H-pyrazole-3,5-diyldi-4,1-phenylene)bis(1-((2S)-2-hydroxy-2-phenylpropanoyl)-2-pyrrolidinecarboxamide)]",< 4.57 nM
13,"O=C(Nc1ccc(-c2n[nH]nc2-c2ccc(NC(=O)[C@@H]3CCCN3C(=O)OCc3ccccc3)cc2)cc1)[C@@H]1CCCN1C(=O)OCc1ccccc1 [OL-19, (2S,2′S)-2,2′-[1H-1,2,3-triazole-4,5-diylbis(4,1-phenyleneiminocarbonyl)]bis-1-pyrrolidinecarboxylic acid, bis(phenylmethyl) ester]",4.57 to 99 nM
14,"CC(=O)N1CCC[C@H]1C(=O)Nc1ccc(-c2nc(-c3ccc(NC(=O)[C@@H]4C=CCN4C(=O)Cc4cccs4)cc3)cs2)cc1 [Example D-48, (2S)-N-[4-[2-[4-[[[(2S)-1-acetyl-2-pyrrolidinyl]carbonyl]amino]phenyl]-4-thiazolyl]phenyl]-2,5-dihydro-1-(2-thienylacetyl)-1H-pyrrole-2-carboxamide]",100 to 999 nM
15,CC(=O)N[C@@H](C(=O)N1[C@H](C(=O)Nc2ccc(-c3cnc(-c4ccc(NC(=O)[C@@H]5C[C@@H]6C[C@@H]6N5C(=O)[C@H](NC(C)=O)c5ccccc5)cc4)o3)cc2)C[C@@H]2C[C@@H]21)c1ccccc1,4.57 to 99 nM
16,"O=C(Nc1ccc(-c2nnc(-c3ccc(NC(=O)[C@H]4CCCN4C(=O)c4cccc(F)n4)cc3)o2)cc1)[C@H]1CCCN1C(=O)c1cccc(F)n1 [RK-25, (2R,2′R)-N,N′-(1,3,4-oxadiazole-2,5-diyldi-4,1-phenylene)bis(1-((6-fluoro-2-pyridinyl)carbonyl)-2-pyrrolidinecarboxamide)]",100 to 999 nM
17,"O=C(Nc1ccc(-c2cnc(-c3ccc(NC(=O)[C@@H]4CCCN4C(=O)C4CCC4)cc3)o2)cc1)[C@@H]1CCCN1C(=O)C1CCC1 [JG-9, (2S,2′S)-N,N′-(1,3-oxazole-2,5-diyldi-4,1-phenylene)bis(1-(cyclobutylcarbonyl)-2-pyrrolidinecarboxamide)]",100 to 999 nM

# Same assay, conditions: Hepatitis C virus, HCV 1b genotype replicon; class symbols; read-out: EC50 Range against HCV 1b
row,SMILES,EC50
1,"COc1ccc2[nH]cc(CC(=O)N3CCC[C@H]3C(=O)Nc3ccc(-c4cnc(-c5ccc(NC(=O)[C@@H]6CCCN6C(=O)Cc6c[nH]c7ccc(OC)cc67)cc5)o4)cc3)c2c1 [XY-11, (2S,2′S)-N,N′-(1,3-oxazole-2,5-diyldi-4,1-phenylene)bis(1-((5-methoxy-1H-indol-3-yl)acetyl)-2-pyrrolidinecarboxamide)]",100 to 999 nM
2,"Cn1cncc1C(O)C(=O)N1CCC[C@H]1C(=O)Nc1ccc(-c2cnc(-c3ccc(NC(=O)[C@@H]4CCCN4C(=O)C(O)c4cncn4C)cc3)o2)cc1 (stereo partly drawn) [JR-3, (2S,2′S)-N,N′-(2,5-oxazolediyldi-4,1-phenylene)bis[1-[hydroxy(1-methyl-1H-imidazol-5-yl)acetyl]-2-pyrrolidinecarboxamide]]",100 to 999 nM
3,"COC(C(=O)N1C[C@H](OC(C)(C)C)C[C@H]1C(=O)Nc1ccc(-c2cnc(-c3ccc(NC(=O)[C@@H]4C[C@@H](OC(C)(C)C)CN4C(=O)C(OC)c4ccccc4)cc3)o2)cc1)c1ccccc1 (stereo partly drawn) [XY-67, (2S,4R,2′S,4′R)-N,N′-(1,3-oxazole-2,5-diyldi-4,1-phenylene)bis(4-tert-butoxy-1-(methoxy(phenyl)acetyl)-2-pyrrolidinecarboxamide)]",4.57 to 99 nM
4,"O=C(Nc1ccc(-c2cnc(-c3ccc(NC(=O)[C@@H]4C[C@@H](O)CN4C(=O)C4CCCCC4)cc3)o2)cc1)[C@@H]1C[C@@H](O)CN1C(=O)C1CCCCC1 [XY-48, (2S,4R,2′S,4′R)-N,N′-(1,3-oxazole-2,5-diyldi-4,1-phenylene)bis(1-(cyclohexylcarbonyl)-4-hydroxy-2-pyrrolidinecarboxamide)]",1000 to 10000 nM
5,"C[C@H](NC(=O)[C@H](c1ccccc1)N(C)C)C(=O)Nc1ccc(-c2nnc(-c3ccc(NC(=O)[C@H](C)NC(=O)[C@H](c4ccccc4)N(C)C)cc3)o2)cc1 [RK-38, (2S,2′S)-N,N′-(1,3,4-oxadiazole-2,5-diyldi-4,1-phenylene)bis(2-(((2S)-2-(dimethylamino)-2-phenylacetyl)amino)propanamide)]",< 4.57 nM
6,"Cn1ccnc1C(=O)N1CCC[C@H]1C(=O)Nc1ccc(-c2cnc(-c3ccc(NC(=O)[C@@H]4CCCN4C(=O)c4nccn4C)cc3)o2)cc1 [XY-21, (2S,2′S)-N,N′-(1,3-oxazole-2,5-diyldi-4,1-phenylene)bis(1-((1-methyl-1H-imidazol-2-yl)carbonyl)-2-pyrrolidinecarboxamide)]",1000 to 10000 nM

# Same assay, conditions: Hepatitis C virus, HCV 1b genotype replicon; read-out: EC50 1b
row,SMILES,EC50
1,"C[C@@](O)(C(=O)N1CCC[C@H]1C(=O)Nc1ccc(-c2cc(-c3ccc(NC(=O)[C@@H]4CCCN4C(=O)[C@@](C)(O)c4ccccc4)cc3)[nH]n2)cc1)c1ccccc1 [JG-39, (2S,2′S)-N,N′-(1H-pyrazole-3,5-diyldi-4,1-phenylene)bis(1-((2S)-2-hydroxy-2-phenylpropanoyl)-2-pyrrolidinecarboxamide)]",< 5 nM
2,CC(=O)N[C@@H](C(=O)N1[C@H](C(=O)Nc2ccc(-c3cnc(-c4ccc(NC(=O)[C@@H]5C[C@@H]6C[C@@H]6N5C(=O)[C@H](NC(C)=O)c5ccccc5)cc4)o3)cc2)C[C@@H]2C[C@@H]21)c1ccccc1,< 5 nM
3,"C[C@H](NC(=O)[C@H](c1ccccc1)N(C)C)C(=O)Nc1ccc(-c2nnc(-c3ccc(NC(=O)[C@H](C)NC(=O)[C@H](c4ccccc4)N(C)C)cc3)o2)cc1 [RK-38, (2S,2′S)-N,N′-(1,3,4-oxadiazole-2,5-diyldi-4,1-phenylene)bis(2-(((2S)-2-(dimethylamino)-2-phenylacetyl)amino)propanamide)]",< 5 nM
